Reference: patent US20260297679A1, “ASSAYS FOR MONITORING INHIBITION OF RNA HELICASE DHX9” (ACCENT THERAPEUTICS, INC., priority 2023, published 2026)

How the values were obtained:
[1] = Intra-tumoral pharmacokinetics bioanalytical assay; type: in vivo, female BALB/c nude mice; conditions: BID oral, 21 days; four parameter non-linear regression; FIG. 4C
Description: Intra-tumoral Pharmacokinetics Bioanalytical Assay: Tumors were collected at 1 h and 12 h post the last dose and cut into 3 pieces. One piece of the tumor was weighted and snap frozen for drug exposure analysis. On the assay day, 3 volumes of H2O were added to the tumor tissue (3 mL to each gram of tissue), and homogenate at 4 degrees Celsius. The homogenate (30 μL) was mixed with 15 μL blank solution, then extracted and protein precipitation with 200 μL of acetonitrile containing IS (internal standard, dexamethasone). After vortexed for 30 s, the samples were centrifuged at 4 degrees Celsius, 3900 rpm for 15 minutes. The supernatant was diluted 3 times with water and 2 μL of diluted supernatant was injected into the LC/MS/MS system for quantitative analysis (AB API 5500). The Q1 to Q3 mass transition (m/z, Da) were 393.11 to 373.10 for dexamethasone and 421.98 to 202.30 for test compound. […]
The concentration in the homogenate was quantified using standards prepared in control tumor tissues with concentrations range 0.5, 1, 2, 5, 10, 50, 100, 500, 1000 ng/mL. The determined concentration in the tumor homogenate was then back calculated to that in tumor tissue by multiplying with a dilution factor of 4.

[2] = system: LS411N tumors; experiment: In vivo efficacy study, tumor volume, LS411N xenograft; design: species or system human xenograft in female BALB/c nude mice; conditions: BID oral, 21 days; FIG. 4B
Description: In vivo Efficacy Study: Experiments were performed in female BALB/c nude mice (GenPharmatech Co.). Animals were allowed to acclimate for 7 days before the study. The general health of the animals were evaluated by a veterinarian, and complete health checks were performed prior to the study. General procedures for animal care and housing were in accordance with the standard, Commission on Life Sciences, National Research Council, Standard Operating Procedures (SOPs) of Pharmaron, Inc. The mice were kept in laminar flow rooms at constant temperature and humidity with 3-5 mice in each cage. Animals were housed in polycarbonate cage which is the size of 300×180×150 mm^3 and in an environmentally monitored, well-ventilated room maintained at a temperature of (23±3° C.) and a relative humidity of 40% 70%. Fluorescent lighting provided illumination approximately 12 hours per day. […]
(§1) The LS411N (ATCC; CRL-2159) tumor cell lines were maintained in vitro as monolayer in RPMI 1640 medium supplemented with 10% heat inactivated FBS, at 37° C. in an atmosphere of 5% CO2 in air. The tumor cells were sub-cultured, not exceeding 4-5 passages, and cells growing in an exponential growth phase were harvested and counted for tumor inoculation. […]
The measurement of tumor size was conducted with a caliper and recorded twice per week. […]

[3] = system: LS411N tumors; experiment: Intra-tumoral human circBRIP1 analysis, LS411N xenograft; type: in vivo, human xenograft in female BALB/c nude mice; conditions: 30, 100, 200 and 300 mg/kg BID oral, 21 days, 12 hours post last dose; FIG. 4A
Description: This study was conducted to evaluate pharmacodynamics (PD) and pharmacokinetics (PK) of intra-tumoral circular BRIP1 with efficacy of a DHX9 inhibitor (Compound 1, as shown in Table 1).
In vivo Efficacy Study: Experiments were performed in female BALB/c nude mice (GenPharmatech Co.). Animals were allowed to acclimate for 7 days before the study. The general health of the animals were evaluated by a veterinarian, and complete health checks were performed prior to the study. […] Animals were housed in polycarbonate cage which is the size of 300×180×150 mm^3 and in an environmentally monitored, well-ventilated room maintained at a temperature of (23±3° C.) and a relative humidity of 40% 70%. […]
as §1
Data analysis was performed by using the QuantStudio Thermocycler software to determine threshold Ct values. ΔCt for circBRIP1 or linBRIP1 is calculated by normalizing the target gene Ct to the GAPDH housekeeping gene Ct for each sample. The inhibition activity is calculated by the following formula, whereas: […]

[4] = system: frozen PBMCs; experiment: circBRIP1 level in frozen human PBMCs; type: cell-based; conditions: 10 μM, 24 hours, frozen PBMCs from three donors, vs vehicle; FIG. 8A
Description: As proof of concept, circBRIP1 levels were examined in peripheral blood mononuclear cells (PMBCs) using frozen PBMCs from donors after treatment with a DHX9 inhibitor.
Frozen PBMCs were thawed in a 37° C. water bath, washed, and reconstituted in media. The same number of cells were added to each well of 12-well plates and let rest for 2 hours before being subjected to testing conditions. Compound 1 was dissolved in DMSO at 10 mM as a stock solution, and diluted to a desired concentration. Frozen PBMCs from three donors or LS411N cells (positive control) were treated with 10 μM of Compound 1 or control vehicle for 24 hours. The circBRIP1 level was determined using methods essentially as described above.

correlation of tumor drug exposure to circBRIP1 induction [1]: correlate to circBRIP1 induction
Compound: Cc1cccnc1-c1csc(C(=O)Nc2cc(Cl)cc(NS(C)(=O)=O)c2)c1 [Compound 1, N-(3-chloro-5-methanesulfonamidophenyl)-4-(3-methylpyridin-2-yl)thiophene-2-carboxamide]
correlation of tumor volume to circBRIP1 induction [2]: correlate to circBRIP1 induction
intra-tumoral circBRIP1 induction [3]: Dose-dependent intra-tumoral circBRIP1 induction was observed
circBRIP1 level in PBMCs [4]: significantly elevated
